Assay results reported in ChEMBL document CHEMBL2363022, “Malaria Box Schistosomiasis Screening Data” (2013).

What was measured:
Type in all cases: functional
Set-up in all cases: scale not given here
[1] = tested on: Schistosoma mansoni
[2] = tested on: Schistosoma mansoni; remark: listed apart in the source
[3] = tested on: Schistosoma mansoni; remark: listed apart in the source

SMILES	Toxicity [1]	Toxicity [2]	Toxicity [3]
Cc1ccc(-c2cc3c(nn2)-c2ccccc2C3=O)cc1	0	0	0
CC(=O)c1ccc(NC(=O)CSc2nc(-c3ccccc3Cl)ns2)cc1	0	0	0
O=C(CCl)NCCOc1ccc(Cl)cc1Cl	4	3	0
COc1ccc(C(O)(CCC(C)C)C(CN2CCOCC2)c2ccc(Cl)cc2)cc1.Cl (centres undefined)	0	0	0
Cn1c(C(=O)c2cccc3ccccc23)nc2ccccc21	0	0	0
CCCCCCc1cc2cc(-c3csc(C=Cc4ccccc4)n3)c(=O)oc2cc1O	0	0	0
CCOC(=O)C1(Cc2ccccc2)CCN(Cc2cccc(OC)c2O)CC1	2	1	1
COc1ccccc1CNC(=O)C1c2ccccc2C(=O)N(CC(C)C)C1c1cccs1 (centres undefined)	0	0	0
c1ccc(Cn2c(N=Nc3c(Nc4ccccc4)ccc4ccccc34)nc3ccccc32)cc1	0	0	0
COc1ccc(C2NCCc3c2[nH]c2ccccc32)cc1CN1CCN(c2ccc(F)cc2)CC1.Cl (centres undefined)	4	4	3
COc1ccc(C2c3ccc4ccccc4c3Oc3ncn(CCCn4ccnc4)c(=N)c32)cc1OC (centres undefined)	0	0	0
COc1ccccc1NC1=C(N2CCCCC2)C(=O)c2ccccc2C1=O	4	4	4
CCc1ccc(CNCC(O)c2ccccc2)cc1.Cl (centres undefined)	1	0	1
CCOc1ccc(-c2nonc2NC(=O)c2cccc(C)c2)cc1OCC	0	0	0
COc1cc(-c2nc(-c3ccccc3)c(-c3ccccc3)[nH]2)cc(OC)c1O	0	0	0
CC(C)c1ccc(CNCC(O)c2ccccc2)cc1.Cl (centres undefined)	0	0	0
COc1cc(OC)c(N(C)C(=O)c2cc3c(s2)-c2ccccc2S(=O)(=O)C3)cc1Cl	0	0	0
Cc1ccc(Cl)cc1N1CCN(CCCNC(=O)C2CCN(c3nc4ccccc4[nH]3)CC2)CC1	3	0	0
COc1ccc(-c2nonc2NC(=O)c2cccc(Cl)c2)cc1OC	0	0	0
Cc1cc(Nc2ccc(C)c(Cl)c2)n2nc(C(F)(F)F)nc2n1	0	0	0
CCOc1ccc(CCNC(=O)c2cccs2)cc1OCC	0	0	0
Oc1ccc2ccccc2c1CNc1nc2ccccc2[nH]1	0	0	2
COc1cccc(C=Cc2nc(=O)c3ccccc3o2)c1OC	0	0	0

SMILES	Toxicity [1]	Toxicity [2]	Toxicity [3]
CCN1CCN(c2cc(C)c3cc(NC(=O)c4ccc(OC)c(OC)c4)ccc3n2)CC1	0	0	1
Cc1cc(Nc2ccc(OCc3ccccc3)cc2)nc2cc(O)ccc12	4	3	2
CCOc1cccc2sc(N(Cc3cccnc3)C(=O)C3CCCCC3)nc12	0	0	0
CCOc1cc(Br)c(C(C)NC(=O)c2cccc(OC)c2)cc1OCC (centres undefined)	0	0	0
CCCCc1c(C)nc2c(OC)cccc2c1O	0	0	0
CCCCOC(=O)c1ccc(Nc2cc(C)nc3ccc(OC)cc23)cc1	4	0	2
Cc1ccc(CSCc2ccc(C(=O)NC3CC3)o2)cc1	0	0	0
COc1ccc2c(c1)OC(O)(C(F)(F)C(F)(F)F)CC2=O (centres undefined)	0	0	0
CSC1=NC(=Nc2c(C)cccc2C)C2(CCC(C(C)(C)C)CC2)N1c1ccc(Cl)cc1 (centres undefined)	0	1	1
CCc1ccc(Nc2cc(C)nc3nc(C)nn23)cc1	0	0	0
Cc1ccc(F)cc1NC(=O)c1cc(Cl)ccc1Nc1ccccc1	0	0	0
COc1ccc(C2Sc3ccccc3N=C3C2=C(O)c2ccccc23)cc1 (centres undefined)	0	0	0
Cc1ccc(Cn2c(N3CCC(C(=O)NCc4cccs4)CC3)nc3ccccc32)cc1	0	0	0
COc1ccc(-c2nonc2NC(=O)c2cccc(C)c2)cc1OC	0	0	0
CN(C)c1ccc(N2C(N)=NC(N)=NC2(C)C)cc1	0	0	0
O=C(CSc1ccc2nnc(-c3cccc(F)c3)n2n1)Nc1ccc2c(c1)OCO2	0	0	0
OC(CNCC1CCCO1)Cn1c2ccc(Cl)cc2c2cc(Cl)ccc21 (centres undefined)	0	0	0
CCOC(=O)C1=C(C)N=c2sc(=Cc3cc(Cl)ccc3O)c(=O)n2C1c1ccc(OC)cc1 (centres undefined)	0	0	0
CCOc1ccc(/C=C/c2nc(=O)c3ccccc3o2)cc1	0	0	0
COc1ccc(CCN2C(=O)c3[nH]nc(-c4cc(Cl)c(C)cc4O)c3C2c2ccccc2F)cc1 (centres undefined)	0	0	0
CCOc1ccc2nc(C)cc(Nc3ccc(N(C)C)cc3)c2c1.Cl	4	4	2
O=C1c2ccccc2-c2nnc(-c3ccc(Br)cc3)cc21	0	0	0
CN1CCN(c2nc(Nc3ccc(O)cc3)nc3ccccc23)CC1.Cl	0	0	0

SMILES	Toxicity [1]	Toxicity [2]	Toxicity [3]
CCOc1cc2c(cc1OCC)C(c1cc(C)c(O)c(C)c1)NCC2.Cl (centres undefined)	0	0	2
O=C(NCC(c1ccsc1)N1CCCCCC1)c1ccc(C(F)(F)F)cc1 (centres undefined)	0	0	0
COCCn1c(C)nc2ccccc2c1=O	0	0	0
CCN(CC)c1cc(C)c2cc(NC(=O)c3cccc(OC)c3)ccc2n1	0	0	2
Cc1c(C)n(CC(O)CNC2CCCCC2C)c2ccccc12 (centres undefined)	0	0	0
CC(=O)c1sc(NC(=O)Nc2ccc(C)cc2C)nc1C	0	0	0
O=C(Nc1ccc(Cl)cc1)N1CCN(c2ccc3nncn3n2)CC1	0	0	0
Cc1sc2ncnc(Sc3nc4ccccc4[nH]3)c2c1C	0	1	1
COc1ccc(OC)c(C2C3=C(CC(C)(C)CC3=O)N(c3ccc(Cl)c(Cl)c3)C3=C2C(=O)CC(C)(C)C3)c1	1	0	1
O=C(Nc1ccc(C23CC4CC(CC(c5ccccc5)(C4)C2)C3)cc1)c1cccs1	2	2	2
CN(C)c1ccc(C(O)(c2ccc(N(C)C)cc2)c2ccc(N(C)C)cc2)cc1 [METHYLROSANILINE]	4	2	2
COc1cc(-c2nc(-c3ccc(Sc4ccccc4)cc3)c(-c3ccccc3)[nH]2)cc(OC)c1O	0	0	0
COc1ccc(N2CCN(C(CNC(=O)C3CCCCC3)c3ccc4c(c3)OCO4)CC2)cc1 (centres undefined)	0	0	0
Cc1cccc(N2C(=O)C3C(C2=O)C2(c4ccccc4)C(=O)C3(c3ccccc3)C(c3ccc4c(c3)OCO4)=C2c2ccc3c(c2)OCO3)c1 (centres undefined)	0	0	0
COCCN(C(=O)Cc1cccs1)C(C(=O)NCc1ccc(OC)cc1)c1ccc(C(C)C)cc1 (centres undefined)	0	0	0
CCOC(=O)C1=C(C)N=c2sc(=Cc3ccccc3O)c(=O)n2C1c1ccc(OC)c2ccccc12 (centres undefined)	4	0	0
CC(C)(C)c1ccc(C(=O)Nc2c3c(nn2-c2cccc(Cl)c2)CSC3)cc1	0	0	0
COc1cccc(Cn2c(Oc3ccccc3)nc3c2c(=O)n(C)c(=O)n3C)c1	0	0	0
CCCc1c(CC)c(=N)c2ccccc2n1C	0	0	1
O=C(NC1CCN(Cc2ccccc2)CC1)c1cc(-c2cccnc2)nc2ccc(Cl)cc12	0	0	0
O=C(c1ccccc1F)N(Cc1ccc(Cl)cc1)c1ccccn1	0	0	0
CCN(CC)CCNc1ccnc2cc3ccccc3cc12.O=P(O)(O)O	3	3	2
